# Measurements as given in ChEMBL document CHEMBL3045007, “Aryloxyacetic esters structurally related to -Asarone as potential antifungal agents” (2010).
# Activity calls are given as the source filed them. No cut-off for these calls is given here.
# Tests used:
# [1] = tested on: Cryptococcus deneoformans; assay: Antifungal activity against Cryptococcus neoformans var. neoformans after 48 hr by broth microdilution method; assay type: functional; conditions: for MIC50: Cryptococcus deneoformans, 48 h
# [2] = tested on: Cryptococcus gattii species complex; assay: Antifungal activity against Cryptococcus gattii after 48 hr by broth microdilution method; assay type: functional, Cryptococcus bacillisporus; conditions: for MIC50: Cryptococcus gattii species complex, 48 h
Structure (SMILES),MFC>99 [1] [µg/mL],MIC50 [1] [µg/mL],MIC50 [2] [µg/mL],MFC>99 [2] [µg/mL],Activity [1],Activity ([2]; Cryptococcus bacillisporus)
CCCCCOC(=O)COc1ccccc1OC,>64,16,64,–,–,–
COC(=O)COc1ccccc1OC,>64,0.5,128,–,–,–
CC(=O)N1CCN(c2ccc(OCC3COC(Cn4ccnc4)(c4ccc(Cl)cc4Cl)O3)cc2)CC1 (stereo not given) [KETOCONAZOLE],–,0.12,0.06,–,–,–
CCC(C)n1ncn(-c2ccc(N3CCN(c4ccc(OCC5COC(Cn6cncn6)(c6ccc(Cl)cc6Cl)O5)cc4)CC3)cc2)c1=O (stereo not given) [ITRACONAZOLE],–,0.03,0.03,–,–,–
OC(Cn1cncn1)(Cn1cncn1)c1ccc(F)cc1F [FLUCONAZOLE],–,4,4,–,–,–
COc1cc(C)ccc1OCC(=O)OC(C)C,–,64,0.25,0.25,–,–
CC[C@H](C)C[C@H](C)CCCCCCCCC(=O)N[C@H]1C[C@@H](O)[C@@H](NCCN)NC(=O)[C@@H]2[C@@H](O)CCN2C(=O)[C@H]([C@H](O)CCN)NC(=O)[C@H]([C@H](O)[C@@H](O)c2ccc(O)cc2)NC(=O)[C@@H]2C[C@@H](O)CN2C(=O)[C@H]([C@@H](C)O)NC1=O [CASPOFUNGIN],–,8,16,–,–,–
CCCCCOC(=O)COc1ccc(C)cc1OC,–,32,0.5,0.5,–,–
C[C@@H]1[C@H](O)[C@@H](C)/C=C/C=C/C=C/C=C/C=C/C=C/C=C/[C@H](O[C@@H]2O[C@H](C)[C@@H](O)[C@H](N)[C@@H]2O)C[C@@H]2O[C@](O)(C[C@@H](O)C[C@@H](O)[C@H](O)CC[C@@H](O)C[C@@H](O)CC(=O)O[C@H]1C)C[C@H](O)[C@H]2C(=O)O [AMPHOTERICIN B],–,0.12,0.12,–,–,–
COc1cc(C)ccc1OCC(=O)Oc1ccc(Cl)cc1,0.25,0.25,0.5,0.5,–,–
CCCCCOC(=O)COc1ccccc1 [N-AMYL PHENOXYACETATE],64,16,2,2,–,–
Cc1ccc(OCC(=O)OC(C)C)cc1 [ISOPROPYL 4-METHYLPHENOXYACETATE],>64,8,128,–,–,–
CCCOC(=O)COc1ccc(C)cc1OC,–,2,0.25,–,Active,Active
CCCOC(=O)COc1cccc(OC)c1,>64,0.5,64,–,–,–
